Experimental findings from paper PMC8131363 (Scientific Reports, 2021) are described below.

Experiment [1] has as its target T1, cCaSR (Felis catus, UniProt C7FF08).
T1 sequence (C7FF08 1-1081): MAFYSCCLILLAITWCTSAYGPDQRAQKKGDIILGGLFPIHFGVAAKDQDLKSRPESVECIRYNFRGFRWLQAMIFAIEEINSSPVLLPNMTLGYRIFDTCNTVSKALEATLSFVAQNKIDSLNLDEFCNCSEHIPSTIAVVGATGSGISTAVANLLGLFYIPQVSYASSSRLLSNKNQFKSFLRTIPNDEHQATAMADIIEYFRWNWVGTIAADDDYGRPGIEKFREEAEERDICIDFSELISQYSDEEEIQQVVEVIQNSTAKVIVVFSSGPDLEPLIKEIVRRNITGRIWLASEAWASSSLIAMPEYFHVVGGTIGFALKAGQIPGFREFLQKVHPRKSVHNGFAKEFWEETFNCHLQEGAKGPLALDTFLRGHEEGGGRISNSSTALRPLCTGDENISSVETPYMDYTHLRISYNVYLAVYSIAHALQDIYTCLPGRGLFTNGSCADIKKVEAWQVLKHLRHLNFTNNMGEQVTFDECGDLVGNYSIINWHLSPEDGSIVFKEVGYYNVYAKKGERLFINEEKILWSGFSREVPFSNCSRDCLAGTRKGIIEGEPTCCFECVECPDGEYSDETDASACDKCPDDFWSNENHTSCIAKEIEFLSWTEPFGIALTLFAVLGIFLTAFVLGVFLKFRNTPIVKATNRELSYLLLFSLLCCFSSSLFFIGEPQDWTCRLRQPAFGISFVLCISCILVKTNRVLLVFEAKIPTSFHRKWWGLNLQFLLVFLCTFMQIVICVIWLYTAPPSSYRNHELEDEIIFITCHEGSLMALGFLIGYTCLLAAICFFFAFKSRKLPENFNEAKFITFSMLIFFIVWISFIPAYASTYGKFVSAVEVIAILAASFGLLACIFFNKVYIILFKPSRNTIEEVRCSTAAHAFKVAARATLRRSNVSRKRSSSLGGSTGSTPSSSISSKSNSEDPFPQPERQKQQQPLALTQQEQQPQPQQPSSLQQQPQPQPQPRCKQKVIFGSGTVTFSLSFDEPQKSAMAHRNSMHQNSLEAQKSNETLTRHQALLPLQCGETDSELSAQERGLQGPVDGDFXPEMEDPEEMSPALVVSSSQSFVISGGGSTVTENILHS
Nature of the experiment: cell-based.
Protocol: (§1) The cCaSR expression constructs were stably-transfected in the mammalian cell line, HEK293/ T-REx/ natClytin. Transfections were performed by electroporation, following standard methodologies. Stably-transfected target and mock pools were obtained after 2–3 weeks of antibiotic selection, and clones were selected for testing. In order to evaluate the activity of each clone, 10 mM Calcium was injected onto the cells and the resulting luminescence was measured.
(§2) All compounds screened on the receptor were analysed in parallel with Calcium, on the HEK293/ T-REx/ natClytin-cCaSR or hCaSR stable or transient cell lines. Prior to the measurements, the cells were incubated with 10 µM of photoprotein substrate, Coelenterazine, prepared in Calcium-free Tyrode’s buffer at 37 °C for 3–4 h. All the data was captured using a FLIPR Tetra (Molecular Devices). A single or double injection protocol was used to capture the data for potential agonists and PAMs, respectively. The compounds tested were all prepared at desired concentration in Calcium-Free Tyrode’s buffer supplemented with 0.5% DMSO. For the activity determination of potential agonists, the single injection protocol was used, with CaCl2 as the positive control for each run. Each compound was injected into specific wells and the luminescence signal was measured for 1 min. for each compound. For potential PAMs, the double injection protocol was used. The first injection was identical to the one described above for potential agonists. A 20 min. resting period followed the first injection and a second injection of 0.5 mM CaCl2 in Calcium-free Tyrode’s buffer was injected to all wells, and the resulting luminescence signal was again measured for 1 min for each compound.
(§3) Dose–response curves were established by plotting signal amplitudes versus agonist concentration. For each compound, the % of maximum response was determined using a standard formula as follows:
(§4) The half maximal effective concentrations (EC50) were identified by nonlinear regression using a variable slope model with the equation Y = Bottom + (X^Hillslope)*(Top–Bottom)/ (X^HillSlope + EC50^HillSlope), where Y is the agonist concentration, Top and Bottom are the plateaus in the same units as Y and HillSlope is the Slope factor or Hill slope. […] In these cases the EC50 was noted as being higher than the maximum concentration used in the assay.

Experiment [2] deals with T1, cCaSR. Nature of the experiment: cCaSR PAM luminescence assay, double injection with 0.5 mM CaCl2, HEK293/T-REx/natClytin-cCaSR. The conditions noted are these: Supplementary Table I, PAM assay, dash = no activity.
Protocol: as §1, §2
The half maximal effective concentrations (EC50) were identified by nonlinear regression using a variable slope model with the equation Y = Bottom + (X^Hillslope)*(Top–Bottom)/ (X^HillSlope + EC50^HillSlope), where Y is the agonist concentration, Top and Bottom are the plateaus in the same units as Y and HillSlope is the Slope factor or Hill slope. All calculations and plots were done using GraphPad Prism 8. […] In these cases the EC50 was noted as being higher than the maximum concentration used in the assay.
For experiment [3], the target named is T1, cCaSR.
Protocol: as §1, §2, §3, §4
Setting [4] is: cCaSR activity, agonist assay, stable inducible cCaSR line, at least three wells.
Where [5] appears, read: EC50 (M), agonist assay, stable inducible cCaSR line, > 0.01 M = maximal response not reached.
The mark [6] stands for this setting: EC50 Ago (M), Supplementary Table I, agonist assay, > 0.01 M = maximal response not reached.

Where a name gives a salt, the structure may show the parent alone.

`COC(=O)C(N)CC(=O)O` (racemic) [DL-Aspartic acid α-methyl ester] gave an EC50 at cCaSR [1] (setting [4]) of more than 0.01 M. At cCaSR [2], the “EC50 PAM (M)” value was “-”. Besides, on cCaSR [3], the “agonist activity on cCaSR (in words)” value was “agonist activity”.

Take `NC(CCCCC(=O)O)C(=O)O` (stereo not shown) [2-Aminopimelic acid]: the EC50 on cCaSR [1] (setting [4]) was more than 0.01 M. Moreover, on cCaSR [2], the “EC50 PAM (M)” value was “-”. On cCaSR [3] (Supplementary Table I, agonist assay, dash = no activity), the “EC50 Ago (M)” value was “-”.

As to `COC(=O)C[C@H](N)C(=O)O` [L-Aspartic acid β-methyl ester hydrochloride], the EC50 at cCaSR [1] (setting [4]) is more than 0.01 M. The “EC50 PAM (M)” value on cCaSR [2] is “-”. The “agonist activity on cCaSR (in words)” value at cCaSR [3] is “agonist activity”.

`N[C@@H](CS(=O)(=O)O)C(=O)O` [L-Cysteic acid monohydrate]: the figures for the EC50 on cCaSR [1] (setting [5]), on cCaSR [1] (setting [6]) and on cCaSR [1] (setting [4]) were 0.00234 M, 0.00234 M and 0.001 to 0.01 M, respectively. In addition, the “EC50 PAM (M)” value at cCaSR [2] was “-”. The “agonist activity on cCaSR (in words)” value at cCaSR [3] is “agonist activity”.

Take `NC(=O)[C@@H](N)CCC(=O)O` [L-Isoglutamine]: the EC50 at cCaSR [1] (setting [4]) was more than 0.01 M. In addition, the “EC50 PAM (M)” value on cCaSR [2] is “-”. In addition, the “agonist activity on cCaSR (in words)” value at cCaSR [3] is recorded as “agonist activity”.

On to `CN[C@@H]1[C@@H](O)[C@@H](O[C@@H]2[C@@H](O)[C@H](O[C@H]3OC(CN)=CC[C@H]3N)[C@@H](N)C[C@H]2N)OC[C@]1(C)O` [Sisomicin sulfate salt, reference compound], for which the EC50 on cCaSR [1] (setting [5]) turned out to be 0.000299 M; at cCaSR [1] (setting [6]), 0.0003 M. For the same molecule, the “EC50 PAM (M)” value at cCaSR [2] is given as “-”.

Take `C[C@H](NC(=O)C[C@H](N)C(=O)O)C(=O)O` [β-Asp-Ala]: the EC50 at cCaSR [1] (setting [4]) is more than 0.01 M. At cCaSR [2], the “EC50 PAM (M)” value is on record as “-”.

With `N[C@@H](CC(=O)NCC(=O)O)C(=O)O` [β-Asp-Gly], the EC50 at cCaSR [1] (setting [4]) was more than 0.01 M. The “EC50 PAM (M)” value on cCaSR [2] is given as “-”.

Regarding `CC(C)C[C@H](NC(=O)C[C@H](N)C(=O)O)C(=O)O` [β-Asp-Leu], the EC50 on cCaSR [1] (setting [6]) and on cCaSR [1] (setting [4]) was more than 0.01 M each time. The “EC50 PAM (M)” value on cCaSR [2] is on record as “-”.

`N[C@@H](CC(=O)N[C@@H](Cc1ccccc1)C(=O)O)C(=O)O` [β-Asp-Phe] registered an EC50 on cCaSR [1] (setting [4]) of more than 0.01 M. Also, at cCaSR [2], the “EC50 PAM (M)” value was “-”.

In turn, `N[C@H](CCC(=O)N[C@@H](Cc1c[nH]c2ccccc12)C(=O)O)C(=O)O` [γ-D-Glu-Trp] came in with an EC50 on cCaSR [1] (setting [5]) of 0.0042 M. In addition, the “EC50 PAM (M)” value at cCaSR [2] is listed as “-”.

`N[C@@H](CCC(=O)N[C@@H](CS)C(=O)O)C(=O)O` [γ-Glu-Cys] registered an EC50 at cCaSR [1] (setting [4]) of more than 0.01 M. In addition, the “EC50 PAM (M)” value on cCaSR [2] was “-”.

The molecule `NC(=O)CC[C@H](NC(=O)CC[C@H](N)C(=O)O)C(=O)O` [γ-Glu-Gln] gave an EC50 at cCaSR [1] (setting [4]) of more than 0.01 M. Also, the “EC50 PAM (M)” value at cCaSR [2] is on record as “-”.

Regarding `N[C@@H](CCC(=O)N[C@@H](CCC(=O)O)C(=O)O)C(=O)O` [γ-Glu-Glu], the results for the EC50 at cCaSR [1] (setting [5]), at cCaSR [1] (setting [6]) and at cCaSR [1] (setting [4]) were 0.00207 M, 0.00206 M and 0.001 to 0.01 M, respectively. For the same molecule, the “EC50 PAM (M)” value at cCaSR [2] is given as “-”.

Take `N[C@@H](CCC(=O)NCC(=O)O)C(=O)O` [γ-Glu-Gly]: the EC50 on cCaSR [1] (setting [4]) was more than 0.01 M. Also, the “EC50 PAM (M)” value at cCaSR [2] was “-”.

For the molecule `CC(C)C[C@H](NC(=O)CC[C@H](N)C(=O)O)C(=O)O` [γ-Glu-Leu], the EC50 on cCaSR [1] (setting [4]) was more than 0.01 M. In addition, the “EC50 PAM (M)” value on cCaSR [2] is given as “-”.

With `CSCC[C@H](NC(=O)CC[C@H](N)C(=O)O)C(=O)O` [γ-Glu-Met], the EC50 on cCaSR [1] (EC50 Value (heat map Fig. 5), cCaSR agonists, heat map) is 0.00687 M; on cCaSR [1] (setting [4]) it was more than 0.01 M. Besides, the “EC50 PAM (M)” value at cCaSR [2] is “-”.

For the molecule `N[C@@H](CCC(=O)N[C@@H](Cc1ccccc1)C(=O)O)C(=O)O` [γ-Glu-Phe], the values for the EC50 at cCaSR [1] (setting [5]) and on cCaSR [1] (setting [4]) were 0.00232 M and 0.001 to 0.01 M, respectively. On cCaSR [2], the “EC50 PAM (M)” value is on record as “-”.

With `N[C@@H](CCC(=O)N[C@@H](Cc1c[nH]c2ccccc12)C(=O)O)C(=O)O` [γ-Glu-Trp], on cCaSR [1] (setting [4]), the 50% effective concentration (EC50) is more than 0.01 M. In addition, the “EC50 PAM (M)” value on cCaSR [2] was “-”.

Take `N[C@@H](CCC(=O)N[C@@H](Cc1ccc(O)cc1)C(=O)O)C(=O)O` [γ-Glu-Tyr]: the EC50 at cCaSR [1] (setting [5]) was 0.00388 M; at cCaSR [1] (setting [6]), 0.00388 M; at cCaSR [1] (setting [4]), 0.001 to 0.01 M. Moreover, the “EC50 PAM (M)” value at cCaSR [2] was “-”.

What is called EC50 is the concentration giving half of the maximal effect. Read a low EC50 as higher potency in that assay.
